Experimental data published in patent publication US20240122847A1, “ORAL POLYPEPTIDE FORMULATIONS” (Bhami's Research Laboratory, Pvt. Ltd., priority 2022, published 2024).
Like-named read-outs stand apart in the source and are kept apart here.

Legend:
[1] = Pharmacokinetics of PTH (1-34) in minipigs, sugar truffle buccal/sublingual vs SC, plasma PTH (1-34) ELISA; conditions: for AUC(0-inf) / AUC 0-t / AUC(t-inf) extrapolated / MRT inf / AUMC 0-inf_obs / AUMC 0-inf_pred / AUMC 0-t / AUMC t-inf_obs / AUMC t-inf_pred / Clast_obs / Clast_pred / Lambda_z / Tlag / Tlast: minipigs; for Mean PTH (1-34) levels: pigs, GII - Buccal/sublingual 0.49 mg
Description: (§1) Pharmacokinetic analysis was conducted in Female Minipigs weighing 12±1 kg for 2 days. Pigs in the oral treatment group was either fasted overnight or fed prior to the test sample administration. All the test animals in the treatment groups were administered with respective test formulation to the pre-designated animals. The animal was restrained and its head was held vertically, the jaws were pulled away, the tongue was gently lifted with a forceps followed by placement of a polypeptide formulation as described herein buccally/sublingually. After placing a polypeptide formulation as described herein, the snout was held together for about 1-2 mins to prevent the chewing of the polypeptide formulation. The time of dosage of each animal was noted. Blood samples were collected at aforementioned time points 0 min, 5 min, 30 min, 1 hour, 2 hours, 4 hours, 8 hours, and 24 hours into an EDTA-blood collection tubes for the separation of plasma to determine PTH (1-34) levels by ELISA. Plasma samples collected at different time points were analyzed by ELISA kit according to Creative Diagnostics protocol. This kit is based on sandwich enzyme-linked immuno-sorbent assay technology. An antibody, anti-PTH (1-34) was pre-coated onto a 96-well plate. Standards, test samples, and biotin-conjugated reagent were added to the wells and incubated. The HRP-conjugated reagent was then added, and the whole plate was incubated. Unbound conjugates were removed using wash buffer at each stage. TMB substrate was used to quantify the HRP enzymatic reaction. After TMB substrate was added, only wells that contain sufficient PTH (1-34) will produce a blue colored product, which then changes to yellow after adding the acidic stop solution. The intensity of the yellow color is proportional to the PTH (1-34) amount bound on the plate. The Optical Density (OD) was measured spectrophotometrically at 450 nm in a microplate reader, from which the concentration of PTH (1-34) can be calculated.
(§2) PTH (1-34) was analyzed in plasma using a specific enzyme linked immunosorbent assay (ELISA). Pharmacokinetic endpoints were determined using noncompartmental methods using PK Solutions software. AUC was approximated using the trapezoidal rule on the observed concentrations. C max for each PTH (1-34) dose was derived as the maximum of all valid concentrations, and t max was then determined as the corresponding time point to C max. The terminal elimination rate constant (λz) was estimated by log-linear regression on the terminal part of the concentration-time curve, and t ½ was then calculated as t ½=ln 2/λz.

[2] = Summary of bioavailability of the formulations of the Examples compared to SC or IV; conditions: plasma, other: buccal/sublingual
[3] = rat, in vivo, sc, 0.04 mg
Description: Pharmacokinetic analysis was conducted in female rats weighing 220-250 grams for 2 days. Rats in the oral treatment group was either fasted overnight or fed prior to the test sample administration. All the test animals in the treatment groups were administered with respective test formulation to the pre-designated animals. The animal was restrained and its head was held vertically, the jaws were pulled away, the tongue was gently lifted with a forceps followed by placement of a polypeptide formulation as described herein buccally/sublingually. After placing a polypeptide formulation as described herein, the snout was held together for about 1-2 mins to prevent the chewing of the polypeptide formulation. The time of dosage of each animal was noted. Blood samples were collected at aforementioned time points 0 min, 15 min, 30 min, 1 hour, 2 hours, 4 hours, 8 hours, 12 hours, 24 hours, and 48 hours into an EDTA-blood collection tubes for the separation of plasma to determine PTH (1-34) levels by ELISA. Plasma samples collected at different time points were analyzed by ELISA kit according to Creative Diagnostics protocol. This kit is based on sandwich enzyme-linked immuno-sorbent assay technology. An antibody, anti-PTH (1-34) was pre-coated onto a 96-well plate. Standards, test samples, and biotin-conjugated reagent were added to the wells and incubated. The HRP-conjugated reagent was then added, and the whole plate was incubated. Unbound conjugates were removed using wash buffer at each stage. TMB substrate was used to quantify the HRP enzymatic reaction. After TMB substrate was added, only wells that contain sufficient PTH (1-34) will produce a blue colored product, which then changes to yellow after adding the acidic stop solution. The intensity of the yellow color is proportional to the PTH (1-34) amount bound on the plate. The Optical Density (OD) was measured spectrophotometrically at 450 nm in a microplate reader, from which the concentration of PTH (1-34) can be calculated.
as §2

[4] = test system: serum calcium, serum phosphorous and alkaline phosphatase; assay: Pharmacodynamics of PTH in Yorkshire pigs; format: in vivo; parameters: sCa / sP / sALP: unit not given here; conditions: for sALP / sCa / sP: Yorkshire pigs
Description: The serum calcium and serum phosphorous were estimated using Siemen's […] 744 Electrolyte Analyzer and for serum ALP Siemen's Dimension Expand Plus was used.
The pharmacodynamics data in subcutaneous and buccal/Sublingual groups are shown in Tables 21 and 22 and in FIGS. 63 and 64.

[5] = minipig, in vivo
Description: as §1, §2

[6] = female, Yorkshire, minipig, plasma, 0.49 mg
[7] = female, Yorkshire, minipig, plasma, sc, 0.04 mg
[8] = Buccal/Sublingual Sugar Truffle Shell (0.49 mg), 0 h
[9] = Buccal/Sublingual Sugar Truffle Shell (0.49 mg), 0.08 h
[10] = Buccal/Sublingual Sugar Truffle Shell (0.49 mg), 0.5 h
[11] = Buccal/Sublingual Sugar Truffle Shell (0.49 mg), 1 h
[12] = Buccal/Sublingual Sugar Truffle Shell (0.49 mg), 2 h
[13] = Buccal/Sublingual Sugar Truffle Shell (0.49 mg), 4 h
[14] = Buccal/Sublingual Sugar Truffle Shell (0.49 mg), 8 h
[15] = Buccal/Sublingual Sugar Truffle Shell (0.49 mg), 24 h

For `CC[C@H](C)[C@H](NC(=O)[C@H](CCC(=O)O)NC(=O)[C@H](CO)NC(=O)[C@@H](NC(=O)[C@@H](N)CO)C(C)C)C(=O)N[C@@H](CCC(N)=O)C(=O)N[C@@H](CC(C)C)C(=O)N[C@@H](CCSC)C(=O)N[C@@H](Cc1cnc[nH]1)C(=O)N[C@@H](CC(N)=O)C(=O)N[C@@H](CC(C)C)C(=O)NCC(=O)N[C@@H](CCCCN)C(=O)N[C@@H](Cc1cnc[nH]1)C(=O)N[C@@H](CC(C)C)C(=O)N[C@@H](CC(N)=O)C(=O)N[C@@H](CO)C(=O)N[C@@H](CCSC)C(=O)N[C@@H](CCC(=O)O)C(=O)N[C@@H](CCCN=C(N)N)C(=O)N[C@H](C(=O)N[C@@H](CCC(=O)O)C(=O)N[C@@H](Cc1c[nH]c2ccccc12)C(=O)N[C@@H](CC(C)C)C(=O)N[C@@H](CCCN=C(N)N)C(=O)N[C@@H](CCCCN)C(=O)N[C@@H](CCCCN)C(=O)N[C@@H](CC(C)C)C(=O)N[C@@H](CCC(N)=O)C(=O)N[C@@H](CC(=O)O)C(=O)N[C@H](C(=O)N[C@@H](Cc1cnc[nH]1)C(=O)N[C@@H](CC(N)=O)C(=O)N[C@@H](Cc1ccccc1)C(=O)O)C(C)C)C(C)C` [PTH (1-34)], the Cmax [1, 6] was 3290 pg/mL, the MRT last [1, 6] was 1.35 h and the Tmax [1, 6] was 0.08 h. The half-life [1, 6] was 0.977 h, the level at 5 min [1, 6] was 3290 pg/mL and the level at 0.5 h [1, 6] was 3040 pg/mL. For the same compound, the level at 1 h [1, 6] was 2610 pg/mL, the level at 2 h [1, 6] was 1240 pg/mL and the level at 4 h [1, 6] was 189 pg/mL. The level at 8 h [1, 6] was 17.8 pg/mL, the AUC(0-inf) ([1]; female, Yorkshire, minipig, plasma, 0.49 mg, AUC 0-inf_obs, buccal/sublingual) was 6.67 ng·h/mL and the AUC(0-inf) ([1]; female, Yorkshire, minipig, plasma, 0.49 mg, AUC 0-inf_pred, buccal/sublingual) was 6.67 ng·h/mL. The AUC 0-t ([1]; female, Yorkshire, minipig, plasma, 0.49 mg, buccal/sublingual) was 6.64 ng·h/mL, the AUC(t-inf) extrapolated ([1]; female, Yorkshire, minipig, plasma, 0.49 mg, AUC t-inf_obs, buccal/sublingual) was 0.025 ng·h/mL and the AUC(t-inf) extrapolated ([1]; female, Yorkshire, minipig, plasma, 0.49 mg, AUC t-inf_pred, buccal/sublingual) was 0.022 ng·h/mL. For the same compound, the MRT inf ([1]; female, Yorkshire, minipig, plasma, 0.49 mg, MRT 0-inf_obs, buccal/sublingual) was 1.39 h, the MRT inf ([1]; female, Yorkshire, minipig, plasma, 0.49 mg, MRT 0-inf_pred, buccal/sublingual) was 1.38 h and the bioavailability ([1]; female, Yorkshire, minipig, plasma, other: buccal/sublingual, 0.49 mg) was 6%. For the same compound, the Cmax [1, 7] was 3280 pg/mL, the MRT last [1, 7] was 2.02 h and the Tmax [1, 7] was 0.5 h. For the same compound, the half-life [1, 7] was 4.55 h, the level at 0 h [1, 7] was 0.002 pg/mL and the level at 5 min [1, 7] was 394 pg/mL. The level at 0.5 h [1, 7] was 3280 pg/mL, the level at 1 h [1, 7] was 3260 pg/mL and the level at 2 h [1, 7] was 2990 pg/mL. The level at 4 h [1, 7] was 164 pg/mL, the level at 8 h [1, 7] was 50 pg/mL and the level at 24 h [1, 7] was 6.43 pg/mL. The AUC(0-inf) ([1]; female, Yorkshire, minipig, plasma, sc, 0.04 mg, AUC 0-inf_obs) was 9.62 ng·h/mL, the AUC(0-inf) ([1]; female, Yorkshire, minipig, plasma, sc, 0.04 mg, AUC 0-inf_pred) was 9.62 ng·h/mL and the AUC 0-t [1, 7] was 9.58 ng·h/mL. The AUC(t-inf) extrapolated ([1]; female, Yorkshire, minipig, plasma, sc, 0.04 mg, AUC t-inf_obs) was 0.0423 ng·h/mL, the AUC(t-inf) extrapolated ([1]; female, Yorkshire, minipig, plasma, sc, 0.04 mg, AUC t-inf_pred) was 0.0396 ng·h/mL and the MRT inf ([1]; female, Yorkshire, minipig, plasma, sc, 0.04 mg, MRT 0-inf_obs) was 2.15 h. The MRT inf ([1]; female, Yorkshire, minipig, plasma, sc, 0.04 mg, MRT 0-inf_pred) was 2.14 h, the “AUMC 0-inf_obs” value ([1]; SC, 0.04 mg) was 20668.040 pg/mL*h^2 and the “AUMC 0-inf_pred” value ([1]; SC, 0.04 mg) was 20587.700 pg/mL*h^2. The “AUMC 0-t” value ([1]; SC, 0.04 mg) was 19375.595 pg/mL*h^2, the “AUMC t-inf_obs” value ([1]; SC, 0.04 mg) was 1292.445 pg/mL*h^2 and the “AUMC t-inf_pred” value ([1]; SC, 0.04 mg) was 1212.104 pg/mL*h^2. The Clast_obs ([1]; SC, 0.04 mg) was 6.435 pg/mL, the Clast_pred ([1]; SC, 0.04 mg) was 6.035 pg/mL and the Lambda_z ([1]; SC, 0.04 mg) was 0.152 h⁻¹. The Tlag ([1]; SC, 0.04 mg) was 0.000 h, the Tlast ([1]; SC, 0.04 mg) was 24.000 h and the “AUMC 0-inf_obs” value ([1]; buccal/sublingual, 0.49 mg) was 9236.909 pg/mL*h^2. The “AUMC 0-inf_pred” value ([1]; buccal/sublingual, 0.49 mg) was 9208.738 pg/mL*h^2, the “AUMC 0-t” value ([1]; buccal/sublingual, 0.49 mg) was 9001.303 pg/mL*h^2 and the “AUMC t-inf_obs” value ([1]; buccal/sublingual, 0.49 mg) was 235.606 pg/mL*h^2. The “AUMC t-inf_pred” value ([1]; buccal/sublingual, 0.49 mg) was 207.435 pg/mL*h^2, the Clast_obs ([1]; buccal/sublingual, 0.49 mg) was 17.765 pg/mL and the Clast_pred ([1]; buccal/sublingual, 0.49 mg) was 15.641 pg/mL. It also gave a Lambda_z ([1]; buccal/sublingual, 0.49 mg) of 0.709 h⁻¹, a Tlag ([1]; buccal/sublingual, 0.49 mg) of 0.000 h and a Tlast ([1]; buccal/sublingual, 0.49 mg) of 8.000 h. For the same compound, the “Mean PTH (1-34) levels” value ([1]; 0 min) was 0.000 pg/mL, the “Mean PTH (1-34) levels” value ([1]; 24 hour) was 0.000 pg/mL and the bioavailability [2] was over 7%. For the same compound, the “AUC 0-inf/D_obs” value [3] was 480.625 pg·h/mL/µg, the “AUC 0-inf/D_pred” value [3] was 480.502 pg·h/mL/µg and the Cl/F_obs [3] was 0.002 (μg)/(pg/mL)/h. For the same compound, the Cl/F_pred [3] was 0.002 (μg)/(pg/mL)/h, the Vz/F_obs [3] was 0.013 (μg)/(pg/mL) and the Vz/F_pred [3] was 0.013 (μg)/(pg/mL). It also gave a sALP [4, 8] of 170.55 ± 12.85, a sCa [4, 8] of 9.46 ± 0.4 and a sP [4, 8] of 10.52 ± 0.33. For the same compound, the sALP [4, 9] was 193.5 ± 9.32, the sCa [4, 9] was 10.05 ± 0.17 and the sP [4, 9] was 9.87 ± 0.15. For the same compound, the sALP [4, 10] was 170.25 ± 10.81, the sCa [4, 10] was 9.77 ± 0.12 and the sP [4, 10] was 8.82 ± 0.17. It also gave a sALP [4, 11] of 148.5 ± 11.9, a sCa [4, 11] of 9.62 ± 0.04 and a sP [4, 11] of 8.3 ± 0.16. For the same compound, the sALP [4, 12] was 137.75 ± 9.67, the sCa [4, 12] was 9.25 ± 0.26 and the sP [4, 12] was 9.1 ± 0.49. It also gave a sALP [4, 13] of 131 ± 11.91, a sCa [4, 13] of 9.3 ± 0.34 and a sP [4, 13] of 9 ± 0.11. For the same compound, the sALP [4, 14] was 128 ± 14.02, the sCa [4, 14] was 9.17 ± 0.26 and the sP [4, 14] was 8.97 ± 0.17. For the same compound, the sALP [4, 15] was 126.5 ± 15.28, the sCa [4, 15] was 9 ± 0.18 and the sP [4, 15] was 9.02 ± 0.14. It also gave a sALP ([4]; Subcutaneous (40 μg), 0 h) of 116.5 ± 6.36, a sCa ([4]; Subcutaneous (40 μg), 0 h) of 9.35 ± 0.63 and a sP ([4]; Subcutaneous (40 μg), 0 h) of 10.7 ± 0.14. The sALP ([4]; Subcutaneous (40 μg), 0.08 h) was 119.5 ± 2.12, the sCa ([4]; Subcutaneous (40 μg), 0.08 h) was 9.65 ± 0.77 and the sP ([4]; Subcutaneous (40 μg), 0.08 h) was 10.52 ± 0.17. It also gave a sALP ([4]; Subcutaneous (40 μg), 0.5 h) of 134.5 ± 17.67, a sCa ([4]; Subcutaneous (40 μg), 0.5 h) of 9.95 ± 0.49 and a sP ([4]; Subcutaneous (40 μg), 0.5 h) of 9.8 ± 0.28. The sALP ([4]; Subcutaneous (40 μg), 1 h) was 158 ± 38.18, the sCa ([4]; Subcutaneous (40 μg), 1 h) was 10.4 ± 0.14 and the sP ([4]; Subcutaneous (40 μg), 1 h) was 9 ± 0.84. For the same compound, the sALP ([4]; Subcutaneous (40 μg), 2 h) was 152.5 ± 36.06, the sCa ([4]; Subcutaneous (40 μg), 2 h) was 10.3 ± 0.14 and the sP ([4]; Subcutaneous (40 μg), 2 h) was 10.25 ± 1.06. It also gave a sALP ([4]; Subcutaneous (40 μg), 4 h) of 141.5 ± 33.23, a sCa ([4]; Subcutaneous (40 μg), 4 h) of 9.9 ± 0.42 and a sP ([4]; Subcutaneous (40 μg), 4 h) of 11 ± 0. It also gave a sALP ([4]; Subcutaneous (40 μg), 8 h) of 133.5 ± 23.33, a sCa ([4]; Subcutaneous (40 μg), 8 h) of 9.5 ± 0.28 and a sP ([4]; Subcutaneous (40 μg), 8 h) of 11.4 ± 0.28. It also gave a sALP ([4]; Subcutaneous (40 μg), 24 h) of 114.5 ± 3.53, a sCa ([4]; Subcutaneous (40 μg), 24 h) of 9.4 ± 0.28 and a sP ([4]; Subcutaneous (40 μg), 24 h) of 11.6 ± 0.28. The “PD effect on serum calcium, serum phosphorous and serum alkaline phosphatase” value ([4]; pigs, PTH given by buccal/sublingual route) was “clearly indicates the effect on serum calcium, serum phosphorous and serum alkaline phosphatase”, the “AUC 0-inf/D_obs” value ([5]; 0.49 mg) was 13610.915 pg·h/mL/mg and the “AUC 0-inf/D_pred” value ([5]; 0.49 mg) was 13604.805 pg·h/mL/mg. The “AUC 0-t/0-inf_obs” value ([5]; 0.49 mg) was 0.996, the “AUC 0-t/0-inf_pred” value ([5]; 0.49 mg) was 0.997 and the Clast_obs/Cmax ([5]; 0.49 mg) was 0.005. The Clast_pred/Cmax ([5]; 0.49 mg) was 0.005, the “AUC 0-inf/D_obs” value ([5]; sc, 0.04 mg) was 240.561 pg·h/mL/µg and the “AUC 0-inf/D_pred” value ([5]; sc, 0.04 mg) was 240.495 pg·h/mL/µg. The “AUC 0-t/0-inf_obs” value ([5]; sc, 0.04 mg) was 0.996, the “AUC 0-t/0-inf_pred” value ([5]; sc, 0.04 mg) was 0.996 and the Cl/F_obs ([5]; sc, 0.04 mg) was 0.004 (μg)/(pg/mL)/h. For the same compound, the Cl/F_pred ([5]; sc, 0.04 mg) was 0.004 (μg)/(pg/mL)/h, the Clast_obs/Cmax ([5]; sc, 0.04 mg) was 0.002 and the Clast_pred/Cmax ([5]; sc, 0.04 mg) was 0.002. The Vz/F_obs ([5]; sc, 0.04 mg) was 0.027 (μg)/(pg/mL) and the Vz/F_pred ([5]; sc, 0.04 mg) was 0.027 (μg)/(pg/mL).
